Results as given in patent publication US20070010671A1, “Novel quinazoline derivatives and methods of treatment related to the use thereof” (priority 2003, published 2007).

target: MCH receptor (Homo sapiens, UniProt Q99705); assay: High throughput functional screening FLIPR/FDSS6000: inhibition of MCH-evoked intracellular Ca2+ changes; type: cell-based; conditions: class by percent of control at 10^-7 M or IC50
In short: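 Cells expressing a non-endogenous, constitutively active MCH receptor were loaded with 4 μM Fluo4-AM (with probenecid) for 1 hr at 37° C. Test compound was preincubated 3 min at 37° C before 50 nM MCH was added. The [Ca2+]i transient was read at Ex 488/Em 530 nm for 290 s.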

Compound	class
Cc1cc(NC(=S)NC[C@H]2CC[C@@H](Nc3nc(N(C)C)c4ccccc4n3)CC2)ccc1Br [compound 736]	3 (Class 3: The value of percent of control at 10^−7 M was more than 60% or the value of IC50 was more than 200 nM.)
Cc1cc(F)ccc1NC(=S)N[C@H]1CC[C@@H](Nc2nc(N(C)C)c3ccccc3n2)CC1 [compound 316, N-(cis-4-{[4-(dimethylamino)quinazolin-2-yl]amino}cyclohexyl)-N′-(4-fluoro-2-methylphenyl)thiourea]	1 (Class 1: The value of percent of control at 10^−7 M was less than 40% or the value of IC50 was less than 50 nM.)
Cc1ccc(NC(=S)NC[C@H]2CC[C@@H](Nc3nc(N(C)C)c4ccccc4n3)CC2)cc1 [compound 621]	3 (Class 3: The value of percent of control at 10^−7 M was more than 60% or the value of IC50 was more than 200 nM.)
CN(C)c1nc(N[C@H]2CC[C@@H](CNC(=S)NCCCCc3ccccc3)CC2)nc2ccccc12 [compound 795]	3 (Class 3: The value of percent of control at 10^−7 M was more than 60% or the value of IC50 was more than 200 nM.)
CCCCCCNC(=S)NC[C@H]1CC[C@@H](Nc2nc(N(C)C)c3ccccc3n2)CC1 [compound 600]	3 (Class 3: The value of percent of control at 10^−7 M was more than 60% or the value of IC50 was more than 200 nM.)
CN(C)c1nc(N[C@H]2CC[C@@H](CNC(=S)Nc3cccc(SC(F)(F)F)c3)CC2)nc2ccccc12 [compound 646]	3 (Class 3: The value of percent of control at 10^−7 M was more than 60% or the value of IC50 was more than 200 nM.)
COc1cccc(CNC(=S)N[C@H]2CC[C@@H](Nc3nc(N(C)C)c4ccccc4n3)CC2)c1OC [compound 292, N-(2,3-dimethoxybenzyl)-N′-(cis-4-{[4-(dimethylamino)quinazolin-2-yl]amino}cyclohexyl)thiourea]	1 (Class 1: The value of percent of control at 10^−7 M was less than 40% or the value of IC50 was less than 50 nM.)
CN(C)c1nc(N[C@H]2CC[C@@H](CNC(=O)NCc3cccc(F)c3)CC2)nc2ccccc12 [compound 533, N-[(cis-4-{[4-(dimethylamino)quinazolin-2-yl]amino}cyclohexyl)methyl]-N′-(3-fluorobenzyl)urea]	2 (Class 2: The value of percent of control at 10^−7 M was from 40% to 60% or the value of IC50 was from 50 nM to 200 nM.)
CCCCOC(=O)c1ccccc1NC(=O)N[C@H]1CC[C@@H](Nc2nc(N(C)C)c3ccccc3n2)CC1 [compound 330]	3 (Class 3: The value of percent of control at 10^−7 M was more than 60% or the value of IC50 was more than 200 nM.)
CC(C)c1cccc(C(C)C)c1NC(=O)NC[C@H]1CC[C@@H](Nc2nc(N(C)C)c3ccccc3n2)CC1 [compound 468]	1 (Class 1: The value of percent of control at 10^−7 M was less than 40% or the value of IC50 was less than 50 nM.)
CN(C)c1nc(N[C@H]2CC[C@@H](NC(=S)Nc3cc(Cl)c(Cl)cc3Cl)CC2)nc2ccccc12 [compound 244]	3 (Class 3: The value of percent of control at 10^−7 M was more than 60% or the value of IC50 was more than 200 nM.)
CN(C)c1nc(N[C@H]2CC[C@@H](CNC(=O)Nc3ccccc3-c3ccccc3)CC2)nc2ccccc12 [compound 412, N-biphenyl-2-yl-N′-[(cis-4-{[4-(dimethylamino)quinazolin-2-yl]amino}cyclohexyl)methyl]urea]	2 (Class 2: The value of percent of control at 10^−7 M was from 40% to 60% or the value of IC50 was from 50 nM to 200 nM.)
CN(C)c1nc(N[C@H]2CC[C@@H](CNC(=S)Nc3ccc(F)cc3)CC2)nc2ccccc12 [compound 599]	3 (Class 3: The value of percent of control at 10^−7 M was more than 60% or the value of IC50 was more than 200 nM.)
CN(C)c1nc(N[C@H]2CC[C@@H](CNC(=S)Nc3ccc(Oc4ccc([N+](=O)[O-])cc4)cc3)CC2)nc2ccccc12 [compound 740]	3 (Class 3: The value of percent of control at 10^−7 M was more than 60% or the value of IC50 was more than 200 nM.)
Cc1c(Cl)cccc1NC(=S)N[C@H]1CC[C@@H](Nc2nc(N(C)C)c3ccccc3n2)CC1 [compound 371]	1 (Class 1: The value of percent of control at 10^−7 M was less than 40% or the value of IC50 was less than 50 nM.)
COc1ccc(NC(=O)NC[C@H]2CC[C@@H](Nc3nc(N(C)C)c4ccccc4n3)CC2)c(C)c1 [compound 556]	2 (Class 2: The value of percent of control at 10^−7 M was from 40% to 60% or the value of IC50 was from 50 nM to 200 nM.)
COc1ccc(C)cc1NC(=S)N[C@H]1CC[C@@H](Nc2nc(N(C)C)c3ccccc3n2)CC1 [compound 221, N-(cis-4-{[4-(dimethylamino)quinazolin-2-yl]amino}cyclohexyl)-N′-(2-methoxy-5-methylphenyl)thiourea]	1 (Class 1: The value of percent of control at 10^−7 M was less than 40% or the value of IC50 was less than 50 nM.)
CCCCc1ccc(NC(=O)NC[C@H]2CC[C@@H](Nc3nc(N(C)C)c4ccccc4n3)CC2)c(C)c1 [compound 766]	3 (Class 3: The value of percent of control at 10^−7 M was more than 60% or the value of IC50 was more than 200 nM.)
CN(C)c1nc(N[C@H]2CC[C@@H](CNC(=O)Nc3ccccc3F)CC2)nc2ccccc12 [compound 439, N-[(cis-4-{[4-(dimethylamino)quinazolin-2-yl]amino}cyclohexyl)methyl]-N′-(2-fluorophenyl)urea]	2 (Class 2: The value of percent of control at 10^−7 M was from 40% to 60% or the value of IC50 was from 50 nM to 200 nM.)
CN(C)c1nc(N[C@H]2CC[C@@H](CNC(=O)Nc3ccccc3OC(F)(F)F)CC2)nc2ccccc12 [compound 576]	3 (Class 3: The value of percent of control at 10^−7 M was more than 60% or the value of IC50 was more than 200 nM.)
N-(3,5-difluorobenzyl)-N′-[(cis-4-{[4-(dimethylamino)quinazolin-2-yl]amino}cyclohexyl)methyl]urea [compound 524]	1 (Class 1: The value of percent of control at 10^−7 M was less than 40% or the value of IC50 was less than 50 nM.)
Cc1onc(-c2ccccc2)c1NC(=O)N[C@H]1CC[C@@H](Nc2nc(N(C)C)c3ccccc3n2)CC1 [compound 355, N-(cis-4-{[4-(dimethylamino)quinazolin-2-yl]amino}cyclohexyl)-N′-(5-methyl-3-phenylisoxazol-4-yl)urea]	1 (Class 1: The value of percent of control at 10^−7 M was less than 40% or the value of IC50 was less than 50 nM.)
CN(C)c1nc(N[C@H]2CC[C@@H](NC(=S)Nc3ccc(Cl)c(C(F)(F)F)c3)CC2)nc2ccccc12 [compound 235]	3 (Class 3: The value of percent of control at 10^−7 M was more than 60% or the value of IC50 was more than 200 nM.)

same assay, conditions: class by percent of control at 10^-7 M or by IC50; read-out: class

IC50 [nM]	Compound
< 50	Cc1cccc(Cl)c1NC(=O)N[C@H]1CC[C@@H](Nc2nc(N(C)C)c3ccccc3n2)CC1 [compound 90]
< 50	CN(C)c1nc(N[C@H]2CC[C@@H](NC(=O)Nc3ccc4c(c3)OCO4)CC2)nc2ccccc12 [compound 120, N-1,3-benzodioxol-5-yl-N′-(cis-4-{[4-(dimethylamino)quinazolin-2-yl]amino}cyclohexyl)urea]
50 to 200	CN(C)c1nc(N[C@H]2CC[C@@H](NC(=O)NCc3ccccc3)CC2)nc2ccccc12 [compound 9, N-benzyl-N′-(cis-4-{[4-(dimethylamino)quinazolin-2-yl]amino}cyclohexyl)urea]
> 200	CN(C)c1nc(N[C@H]2CC[C@@H](NC(=O)Nc3cc(C(F)(F)F)ccc3F)CC2)nc2ccccc12 [compound 97, N-(cis-4-{[4-(dimethylamino)quinazolin-2-yl]amino}cyclohexyl)-N′-[2-fluro-5-(trifluoromethyl)phenyl]urea]
> 200	CN(C)c1nc(N[C@H]2CC[C@@H](NC(=O)Nc3ccc(-c4ccccc4)cc3)CC2)nc2ccccc12 [compound 833]
< 50	CCCCCNC(=O)N[C@H]1CC[C@@H](Nc2nc(N(C)C)c3ccccc3n2)CC1 [compound 54, N-(cis-4-{[4-(dimethylamino)quinazolin-2-yl]amino}cyclohexyl)-N′-pentylurea]
< 50	Cc1c(NC(=O)N[C@H]2CC[C@@H](Nc3nc(N(C)C)c4ccccc4n3)CC2)cccc1[N+](=O)[O-] [compound 107, N-(cis-4-{[4-(dimethylamino)quinazolin-2-yl]amino}cyclohexyl)-N′-(2-methyl-3-nitrophenyl)urea]
> 200	CN(C)c1nc(N[C@H]2CC[C@@H](NC(=S)Nc3ccccc3)CC2)nc2ccccc12 [compound 191]

Compound	IC50 [nM]
COc1ccccc1OC(=O)N[C@H]1CC[C@@H](Nc2nc(N(C)C)c3ccccc3n2)CC1 [compound 851]	> 200
CN(C)c1nc(N[C@H]2CC[C@@H](CNC(=O)Oc3ccccc3)CC2)nc2ccccc12 [compound 879]	> 200

same assay, conditions: class by percent of control at 10^−7 M or by IC50; read-out: class

IC50 [nM]	Compound
50 to 200	COc1cc(CNC(=O)[C@H]2CC[C@@H](Nc3nc(N(C)C)c4cc(F)c(F)cc4n3)CC2)cc(OC)c1 [Example 993, cis-N-(3,5-dimethoxybenzyl)-4-{[4-(dimethylamino)-6,7-difluoroquinazolin-2-yl]amino}cyclohexanecarboxamide]
> 200	CN(C)c1nc(N[C@H]2CC[C@@H](NC(=O)C(O)c3cccc(F)c3F)CC2)nc2ccccc12 (relative stereo) [Example 1109, 2-(2,3-difluorophenyl)-N-(cis-4-{[4-(dimethylamino)quinazolin-2-yl]amino}cyclohexyl)-2-hydroxyacetamide]
< 50	COc1cccc(Oc2ccc(C(=O)N[C@H]3CC[C@@H](Nc4nc(N(C)C)c5ccccc5n4)CC3)cn2)c1 [Example 1056, N-(cis-4-{[4-(dimethylamino)quinazolin-2-yl]amino}cyclohexyl)-6-(3-methoxyphenoxy)nicotinamide]
< 50	CN(C)c1nc(N[C@H]2CC[C@@H](NC(=O)c3cccnc3Oc3ccccc3F)CC2)nc2ccccc12 [Example 1030, N-(cis-4-{[4-(dimethylamino)quinazolin-2-yl]amino}cyclohexyl)-2-(2-fluorophenoxy)nicotinamide]
